Source: patent US6395741B1, “Agent for prophylaxis or treatment of dysuria” (Tanabe Seiyaku Co., Ltd., priority 1998, dated 2002)
Square brackets hold non-standard residues; d marks the D form. Ends that are not written are not given here. Peptide text beside a SMILES is read from it. Nva = CCC[C@H](N)C(=O)O

Experiments:
[1] = tested on: smooth muscle of hypertrophied prostatic adenoma; conditions: Journal of Japanese Urology Society, vol. 84, No. 9, 1993; cited from earlier work
anesthetized dogs = test: Urethral resistance increasing activity in the anesthetized dogs; type: in vivo, dog
Method: (§1) Polyethylene tubes were inserted to male adult mongrel dogs which had been fasted overnight (four dogs, weights: 10 to 14 kg), under pentobarbital anesthesia (30 mg/kg, i.v.), at the femoral veins on both sides. The anesthesia was maintained by continuous transfusion of pentobarbital (4.5 mg/kg) from said polyethylene tubes, and the dogs were ventilated by a respirator for animal (20 strokes per minute, 15 ml/kg/ventilation). Then, a polyethylene tube was inserted for administration of a test compound into the duodenum, and the urinary bladder and the proximal urethra were exposed. In order to avoid the urinary backup within the urinary bladder, a polyethylene tube having a silicon tube was inserted at the ureters on both sides, by which a way for excreting the urine from the body was reserved. Moreover, in order to determine the ventral and dorsal prostatic urethral resistances, the apex of the urinary bladder was incised, and a 2-hole open-tip catheter (12Fr, manufactured by CLINY) was inserted into the prostatic urethra through the bladder body. Said catheter was ligated at the proximal urethra and the bladder body, and one of the ends thereof was connected with a pressure-transducer and a syringe pump (SP-25, manufactured by Terumo Corporation) via a three-way turncock. Then, the change in the perfusion pressure (i.e., the change in the urethral resistance, mmHg) caused by the continuous infusion of physiological saline (37° C., 3 ml/hr) through this catheter was recorded on a linearcorder (WR-3701, manufactured by Graphtec Corporation) via a carrier amplifier (AP-621G, manufactured by Nihon Kohden Corporation).
In order to increase the urethral resistance, a solution of phenylephrine (α1 agonist) or endothelin-1 in physiological saline was intravenously administered at a prescribed dose (volume: 0.1 ml/kg) to the dogs when 60 minutes or more elapsed after the above operation.

[2] = tested on: increase in urethral resistance induced by endothelin-1; test: Inhibitory activity against the increase in urethral resistance induced by endothelin-1; type: in vivo, dog; conditions: intraduodenal administration 1 mg/kg; endothelin-1 0.4 nmol/kg i.v.; dogs
Method: as §1, with “Moreover, in order to determine the ventral and dorsal prostatic urethral resistances, the apex of the urinary bladder was incised, and a 2-hole open-tip catheter (12Fr, manufactured by CLINY) was inserted into the prostatic urethra through the bladder body. Said catheter was ligated at the proximal urethra and the bladder body, and one of the ends thereof was connected with a pressure-transducer and a syringe pump (SP-25, manufactured by Terumo Corporation) via a three-way turncock.” left out, “Corporation). […]” for “Corporation).”

[3] = tested on: prostatic contractions induced by endothelin-1; conditions: JP-A-8-508034; cited from earlier work

For `CCC[C@@H]1NC(=O)[C@@H](C(C)C)NC(=O)[C@@H]2CCCN2C(=O)[C@@H](CC(=O)O)NC(=O)[C@@H](Cc2c[nH]c3ccccc23)NC1=O` (cyclo([Nva][dW][dD]P[dV])), the “Inhibition of contractions of the smooth muscle of hypertrophied prostatic adenoma induced by endothelin-1” value [1] is given as “inhibited”.
In the case of `CNC[C@H](O)c1cccc(O)c1` [phenylephrine], the “Urethral pressure (increase of the prostatic urethral resistance)” value (anesthetized dogs; phenylephrine i.v. 0.3 μg/kg, anesthetized dogs) is reported as 0.8 mmHg, the “Urethral pressure (increase of the prostatic urethral resistance)” value (anesthetized dogs; phenylephrine i.v. 1 μg/kg, anesthetized dogs) is reported as 2.1 mmHg and the “Urethral pressure (increase of the prostatic urethral resistance)” value (anesthetized dogs; phenylephrine i.v. 3 μg/kg, anesthetized dogs) is reported as 3.3 mmHg. For the same compound, the “Urethral pressure (increase of the prostatic urethral resistance)” value (anesthetized dogs; phenylephrine i.v. 10 μg/kg, anesthetized dogs) was 4.6 mmHg and the “Urethral pressure (increase of the prostatic urethral resistance)” value (anesthetized dogs; phenylephrine i.v. 30 μg/kg, anesthetized dogs) was 4.9 mmHg.
With `Cc1ccc(-c2c(NS(=O)(=O)c3ccc(C(C)(C)CO)cc3)ncnc2OCCOc2ncc(Br)cn2)cc1.[Na]` [test compound, 4-(2-hydroxy-1,1-dimethylethyl)-N-[6-{2-(5-bromopyrimidin-2-yloxy)ethoxy}-5-(4-methylphenyl)pyrimidin-4-yl]benzenesulfonamide sodium salt 1.5 hydrate] the “Inhibition of the increase in urethral resistance induced by endothelin-1” value [2] was “completely inhibited”.
For “N-(4-isopropylbenzenesulfonyl)-α-(4-carboxy-2-n-propylphenoxy)-3,4-methylenedioxyphenylacetamide dipotassium salt”, the “Activity of inhibiting the prostatic contractions induced by endothelin-1” value [3] is given as “shows an activity of inhibiting”.
In the case of “endothelin-1 (CSCSSLMDKECVYFCHLDIIW; ends and bridges not checked; cysteine pairing not given here; UniProt P05305 53-73, looked up)”, the “Average increase of the urethral resistance relative to phenylephrine at 30 μg/kg” value (anesthetized dogs; endothelin-1 0.4 nmol/kg vs phenylephrine 30 μg/kg, i.v., dogs) is reported as “about 4 times”, the “Urethral pressure (increase of the prostatic urethral resistance)” value (anesthetized dogs; endothelin-1 i.v. 0.05 nmol/kg, anesthetized dogs) is reported as 2.2 mmHg and the “Urethral pressure (increase of the prostatic urethral resistance)” value (anesthetized dogs; endothelin-1 i.v. 0.1 nmol/kg, anesthetized dogs) is reported as 4.5 mmHg. The “Urethral pressure (increase of the prostatic urethral resistance)” value (anesthetized dogs; endothelin-1 i.v. 0.2 nmol/kg, anesthetized dogs) was 14.3 mmHg, the “Urethral pressure (increase of the prostatic urethral resistance)” value (anesthetized dogs; endothelin-1 i.v. 0.4 nmol/kg, anesthetized dogs) was 18.9 mmHg and the “Urethral pressure (increase of the prostatic urethral resistance)” value (anesthetized dogs; endothelin-1 i.v. 0.8 nmol/kg, anesthetized dogs) was 15.4 mmHg. For the same compound, the “Duration of the urethral resistance increasing activity” value (anesthetized dogs; i.v., anesthetized dogs, compared with phenylephrine) was “more long-acting than that of phenylephrine”.
